One block for each compound: values may come before it.
What was measured:
CYP2D6 [1] = target: T1, CYP2D6 (Homo sapiens, UniProt P10635); details: cited from earlier work
CYP2D6 [2] = target: T1, CYP2D6; assay: biochemical
Excerpt: The composition of the mobile phase was 40% acetonitrile: 60% acetic acid (0.1%) (vol/vol).

CYP3A [3] = assay: Inhibition of CYP3A-mediated midazolam 1′-hydroxylation in human liver microsomes; assay type: in vitro ADME; details: for Inhibitory potency ([inhibitor]/K i), CYP3A (1-hydroxylation): relative to the mean of reported therapeutic concentrations
Procedure: (§1) The mass spectrometer was run in the positive ion mode. Nitrogen as the drying gas was supplied at a flow of 10 L/minutes and at a temperature of 350°C.

[4] = reported therapeutic concentrations; ref Kirchherr and Kühn-Velten [18]; cited from earlier work
CYP2C9 = CYP2C9 (Homo sapiens, UniProt P11712); assay: Inhibition of CYP2C9-mediated diclofenac 4′-hydroxylation in human liver microsomes; details: 15 μM diclofenac, antipsychotics 0.05 to 50 μM, abaperidone up to 20 μM
CYP2C9, sequence (P11712 whole entry): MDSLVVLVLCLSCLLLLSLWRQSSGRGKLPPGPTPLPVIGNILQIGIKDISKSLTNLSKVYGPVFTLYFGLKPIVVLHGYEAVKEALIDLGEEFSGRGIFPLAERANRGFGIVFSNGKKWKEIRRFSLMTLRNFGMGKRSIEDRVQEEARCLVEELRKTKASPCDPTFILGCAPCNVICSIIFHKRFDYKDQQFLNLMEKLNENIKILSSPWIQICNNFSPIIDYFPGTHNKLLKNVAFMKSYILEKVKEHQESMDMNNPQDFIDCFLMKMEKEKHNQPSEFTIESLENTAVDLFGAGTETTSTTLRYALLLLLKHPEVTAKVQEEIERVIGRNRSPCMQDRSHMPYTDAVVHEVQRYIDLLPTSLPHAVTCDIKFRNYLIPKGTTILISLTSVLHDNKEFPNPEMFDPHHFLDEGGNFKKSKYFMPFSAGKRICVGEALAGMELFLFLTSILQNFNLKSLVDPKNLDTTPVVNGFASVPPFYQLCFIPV
Procedure: Inhibition studies on four different CYP isoform-specific substrates were carried out in human liver microsomes (Gentest Corporation, Woburn, MA). Assessed reactions were phenacetin O-deethylation for CYP1A2, (+/−)-bufuralol 1′-hydroxylation for CYP2D6, diclofenac 4′-hydroxylation for CYP2C9, and midazolam 1′- and 4′-hydroxylation for CYP3A. The different antipsychotics were dissolved in methanol and serially diluted with 100 mM tris buffer (pH = 7.5) to obtain final concentrations ranging from 0.05 to 50 μM. Abaperidone was an exception and was dissolved in hot water up to a maximum concentration of 20 μM.
Reactions were started by adding microsomal protein and the mix was then vortexed and incubated at 37°C for 30 min. The process was stopped by the addition of acetonitrile and incubation on ice during 10 minutes. Samples were then centrifuged at 10,000 g for 3 minutes, and the supernatant was taken for subsequent HPLC analysis. Control inhibition studies were carried out with prototypic inhibitors in increasing concentrations up to 20 μM, namely, furafylline (CYP1A2), quinidine (CYP2D6), sulphaphenazole (CYP2C9), and ketoconazole (CYP3A).
The effect of antipsychotics on the rate of CYP-catalyzed probe substrates was expressed as a percentage of the control activity with no antipsychotic present.

CYP3A [5] = assay: Inhibition of CYP3A-mediated midazolam 4′-hydroxylation in human liver microsomes; assay type: in vitro ADME; details: abaperidone up to 20 μM
Procedure: as §1

T1 sequence (P10635 whole entry): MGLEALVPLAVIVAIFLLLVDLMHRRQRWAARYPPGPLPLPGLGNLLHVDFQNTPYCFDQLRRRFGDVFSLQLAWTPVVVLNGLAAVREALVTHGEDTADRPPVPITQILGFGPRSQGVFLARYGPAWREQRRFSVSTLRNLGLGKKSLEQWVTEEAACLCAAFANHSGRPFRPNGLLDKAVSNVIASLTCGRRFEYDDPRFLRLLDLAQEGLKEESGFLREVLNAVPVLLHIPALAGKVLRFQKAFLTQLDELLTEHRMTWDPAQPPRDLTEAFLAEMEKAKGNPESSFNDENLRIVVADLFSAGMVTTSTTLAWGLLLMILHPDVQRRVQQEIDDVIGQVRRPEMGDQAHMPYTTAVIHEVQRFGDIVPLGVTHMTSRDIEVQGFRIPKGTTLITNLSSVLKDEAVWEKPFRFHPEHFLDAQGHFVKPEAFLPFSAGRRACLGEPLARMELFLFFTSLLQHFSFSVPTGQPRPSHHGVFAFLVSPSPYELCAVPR

Inhibitory potency ([inhibitor]/K i), CYP3A (1-hydroxylation) (CYP3A [3]): 0.0092
SMILES: Cc1nc2n(c(=O)c1CCN1CCC(c3noc4cc(F)ccc34)CC1)CCCC2 [Risperidone]

Inhibition of CYP2C9 (in words) (CYP2C9): did not cause a significant inhibition | Inhibition of CYP3A midazolam 1′-hydroxylation (in words) (CYP3A [3]; human liver microsomes, abaperidone up to 20 μM): did not cause a significant inhibition | Inhibition of CYP3A midazolam 4′-hydroxylation (in words) (CYP3A [5]): did not cause a significant inhibition
SMILES: O=c1c(CO)coc2cc(OCCCN3CCC(c4noc5cc(F)ccc45)CC3)ccc12 [abaperidone, 7-[3-[4-(6-fluoro-1,2-benzisoxazol-3-yl)-piperidin-1-yl]propoxy]-3-(hydroxymethyl)chromen-4-one]

More lines, now with the values behind:

SMILES: O=C(CCCN1CCC(O)(c2ccc(Cl)cc2)CC1)c1ccc(F)cc1 [Haloperidol]
Inhibition of CYP2D6 (in words, literature) (CYP2D6 [1]): inhibitory effect

SMILES: COc1ccc2c(c1)N(C[C@H](C)CN(C)C)c1ccccc1S2 [Levomepromazine]
IC50 (CYP2D6 [2]): 25.5 µM | Ki (CYP2D6 [2]): 12.8 µM | Ki at 30 min (CYP3A [3]; human, human liver microsomes, pH 7.5, probe midazolam (1′-hydroxylation), 10 μM, estimate obtained from IC50 as described in [17] (IC50-to-Ki tool), read-out: K i, CYP3A (1-hydroxylation)): 15 µM | inhibition at 30 min (CYP3A [3]; pH 7.5, probe midazolam (1′-hydroxylation), 10 μM, human liver microsomes, inhibitor 0.05 to 50 μM, read-out: I max (maximum inhibition), CYP3A (1-hydroxylation)): 58.2% | IC50 at 30 min (CYP3A [3]; pH 7.5, probe midazolam (1′-hydroxylation), human liver microsomes, 10 μM midazolam, 30 min 37°C): 30 µM | Inhibitory potency ([inhibitor]/K i), CYP3A (1-hydroxylation) (CYP3A [3]): 0.0083 | Therapeutic range [4]: 0.05 to 0.2 µM

SMILES: Cc1cc2c(s1)Nc1ccccc1N=C2N1CCN(C)CC1 [Olanzapine]
Therapeutic range [4]: 0.06 to 0.25 µM

SMILES: CN1CCN(C2=Nc3cc(Cl)ccc3Nc3ccccc32)CC1 [clozapine]
Inhibition of CYP2D6 (in words, literature) (CYP2D6 [1]): inhibitory effect
